Test results as given in US20090028925A1, “Novel Phosphinic Acid-Containing Thyromimetics” (priority 2005, published 2009).
Read-outs that look alike come from different tables or passages of the source.

How the values were obtained:
[1] = target: T1, human thyroid hormone receptors TRα1 (Homo sapiens, UniProt P10827); assay: Receptor binding to TRα1 (gel filtration and scintillation proximity assay, labeled T3); details: read-out: Ki TRα
T1 construct: made in house; host or cells: Sf9 insect cells (baculovirus)
T1 sequence (P10827 1-410 isoform P10827-2): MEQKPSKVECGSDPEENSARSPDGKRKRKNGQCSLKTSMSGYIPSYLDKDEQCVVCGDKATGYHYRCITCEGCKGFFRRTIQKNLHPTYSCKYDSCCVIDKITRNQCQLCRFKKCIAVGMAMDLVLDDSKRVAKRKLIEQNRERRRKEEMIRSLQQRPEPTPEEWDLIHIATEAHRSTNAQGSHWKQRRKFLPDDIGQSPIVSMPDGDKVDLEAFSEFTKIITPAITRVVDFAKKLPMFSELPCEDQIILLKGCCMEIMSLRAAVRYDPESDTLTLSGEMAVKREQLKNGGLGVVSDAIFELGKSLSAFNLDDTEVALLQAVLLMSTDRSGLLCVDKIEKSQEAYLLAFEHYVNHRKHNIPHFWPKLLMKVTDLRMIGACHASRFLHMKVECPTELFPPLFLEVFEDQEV
T1 sequence (P19793 1-462 partner): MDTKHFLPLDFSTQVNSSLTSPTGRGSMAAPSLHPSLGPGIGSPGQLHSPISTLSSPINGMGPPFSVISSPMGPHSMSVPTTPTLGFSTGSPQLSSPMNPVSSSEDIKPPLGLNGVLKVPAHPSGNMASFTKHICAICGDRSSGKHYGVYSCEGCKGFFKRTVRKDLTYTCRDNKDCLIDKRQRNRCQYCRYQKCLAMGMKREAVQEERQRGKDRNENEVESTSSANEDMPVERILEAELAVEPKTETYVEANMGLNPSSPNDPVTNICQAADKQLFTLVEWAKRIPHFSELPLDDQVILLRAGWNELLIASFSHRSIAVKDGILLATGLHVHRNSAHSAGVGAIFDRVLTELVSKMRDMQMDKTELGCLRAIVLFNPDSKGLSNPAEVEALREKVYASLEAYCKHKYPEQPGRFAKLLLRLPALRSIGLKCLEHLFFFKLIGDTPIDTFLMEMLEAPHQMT
Procedure: (§1) Methods: Baculoviruses expressing TRα1, TRβ1 and RXRα were generated using cDNA and other reagents from Invitrogen (Carlsbad, Calif.). To produce TR/RXR heterodimer proteins, the sf9 insect cells were first grown to a density of 1-5×10^5 cells/mL. […] and RXRα baculovirus stocks were added to the cell culture with a ratio of 1 to 1 (multiplicity of infection=10). The cells were harvested three days after the infection.
(§2) Binding of compounds to either the TRα1 or TRβ1 were also performed by means of scintillation proximity assays (SPA). The SPA assay, a common method used for the quantitation of receptor-ligand equilibria, makes use of special beads coated with a scintillant and a capture molecule, copper, which binds to the histidine-tagged α or β receptor.

plasma cholesterol = assay: Cholesterol lowering in hypercholesterolemic rats; format: in vivo; details: for change in vivo at 0.2 mg/kg/day / change in vivo at 0.5 mg/kg/day: Rattus norvegicus, read-out: % Cholesterol Lowering
[2] = target: T2, human thyroid hormone receptors TRβ1 (Homo sapiens, UniProt P10828); assay: Receptor binding to TRβ1 (gel filtration and scintillation proximity assay, labeled T3); details: read-out: Ki TRβ
T2 construct: made in house; host or cells: Sf9 insect cells (baculovirus)
T2 sequence (P10828 1-461): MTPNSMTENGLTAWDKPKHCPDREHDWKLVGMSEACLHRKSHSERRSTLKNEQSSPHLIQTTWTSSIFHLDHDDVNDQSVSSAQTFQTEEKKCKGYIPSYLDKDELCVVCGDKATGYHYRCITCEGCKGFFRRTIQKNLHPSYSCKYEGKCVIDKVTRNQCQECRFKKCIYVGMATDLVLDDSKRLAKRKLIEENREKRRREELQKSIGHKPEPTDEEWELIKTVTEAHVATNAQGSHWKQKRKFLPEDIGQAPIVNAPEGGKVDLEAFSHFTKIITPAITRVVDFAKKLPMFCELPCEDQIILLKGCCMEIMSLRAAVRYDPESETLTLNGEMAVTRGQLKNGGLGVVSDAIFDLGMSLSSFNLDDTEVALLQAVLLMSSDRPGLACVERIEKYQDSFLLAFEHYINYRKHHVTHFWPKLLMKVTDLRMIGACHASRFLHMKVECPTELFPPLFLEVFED
T2 sequence (P19793 1-462 partner): T1 sequence (P19793 1-462 partner)
Procedure: as §1, §2

[3] = ip, delivered i.p (0.2 mg/kg/d), percentage change from pre-dose cholesterol
[4] = po, delivered p.o. (0.2 mg/kg/d), percentage change from pre-dose cholesterol

Row | SMILES | Ki ([1]; SPA data) | Ki ([2]; SPA data) | change in vivo at 0.2 mg/kg/day (plasma cholesterol; [3]) | change in vivo at 0.2 mg/kg/day (plasma cholesterol; [4]) | further results
1 | O=P(O)(O)Cc1cc(I)c(Oc2ccc(O)c(I)c2)c(I)c1 [Compound 6, 3,5-diiodo-4-(4′-hydroxy-3′-iodophenoxy)benzylphosphonic acid] | 16 nM | – | -20.5% | – | Ki [2]: 26 nM
2 | Cc1cc(OCP(=O)(O)O)cc(C)c1Cc1ccc(O)c(-c2ccccc2)c1 [Compound 7-1, [3,5-dimethyl-4-(4′-hydroxy-3′-phenylbenzyl)phenoxy]methylphosphonic acid] | – | 106 nM | – | -12.2% | Ki [1]: 1170 nM
3 | CCC(C)c1cc(Cc2c(C)cc(OCP(=O)(O)O)cc2C)ccc1O (stereo not shown) [Compound 7-3, [3,5-dimethyl-4-(3′-sec-butyl-4′-hydroxybenzyl)phenoxy]methylphosphonic acid] | 31 nM | 6.6 nM | -45.4% | -36.5% | –
4 | Cc1cc(OC(F)(F)P(=O)(O)O)cc(C)c1Cc1ccc(O)c(C(C)C)c1 [Compound 7-6, difluoro-[3,5-dimethyl-4-(4′-hydroxy-3′-iso-propylbenzyl)phenoxy]methylphosphonic acid] | 98 nM | 7.6 nM | -13.5% | – | –
5 | CCc1cc(Cc2c(C)cc(OCP(=O)(O)O)cc2C)ccc1O [Compound 7-8, [3,5-dimethyl-4-[3′-ethyl-4′-hydroxybenzyl]phenoxy]methylphosphonic acid] | – | – | -28.6% | – | Ki [1]: 62 nM; Ki [2]: 9.7 nM
6 | CCC(CC)c1cc(Cc2c(C)cc(OCP(=O)(O)O)cc2C)ccc1O [Compound 7-9, [3,5-dimethyl-4-[3′-(1-ethylpropyl)-4′-hydroxybenzyl]phenoxy]methylphosphonic acid] | 110 nM | 5.4 nM | -63.2% | -38.4% | –
7 | Cc1cc(Cc2c(C)cc(OCP(=O)(O)O)cc2C)cc(C(C)C)c1O [Compound 7-10, [3,5-dimethyl-4-(4′-hydroxy-3′-iso-propyl-5′-methyl benzyl)phenoxy]methylphosphonic Acid] | 112 nM | 48 nM | -25.8% | – | –
8 | CC(C)c1cc(Cc2c(Cl)cc(OCP(=O)(O)O)cc2Cl)cc(Br)c1O [Compound 7-14, [3,5-dichloro-4-(5′-bromo-4′-hydroxy-3′-iso-propylbenzyl)phenoxy]methylphosphonic acid] | 429 nM | 52 nM | -32.9% | – | –
9 | CC(C)c1cc(Oc2c(I)cc(OCP(=O)(O)O)cc2I)ccc1O [Compound 8, [3,5-diiodo-4-(4′-hydroxy-3′-iso-propylphenoxy)phenoxy]methylphosphonic acid] | – | – | -24.3% | -20.6% | Ki [1]: 3.74 nM; Ki [2]: 0.97 nM
10 | CC(C)c1cc(Oc2c(Br)cc(OCP(=O)(O)O)cc2Br)ccc1O [Compound 8-1, [3,5-dibromo-4-(3′-iso-propyl-4′-hydroxyphenoxy)phenoxy]methylphosphonic acid] | – | – | – | -32.2% | Ki [1]: 18.6 nM; Ki [2]: 2.51 nM
11 | O=P(O)(O)Cc1cc(Cl)c(Oc2ccc(O)c(Cc3ccc(F)cc3)c2)c(Cl)c1 [Compound 11, 3,5-dichloro-4-[3′-(4-fluorobenzyl)-4′-hydroxyphenoxy]benzylphosphonic acid] | 121 nM | 30.3 nM | -36.4% | -5.1% | –
12 | CCOC(=O)[C@H](C)NP(=O)(COc1cc(I)c(Oc2ccc(O)c(C(C)C)c2)c(I)c1)N[C@@H](C)C(=O)OCC [Compound 15-8] | – | – | – | – | change in vivo at 0.5 mg/kg/day (plasma cholesterol; po, delivered p.o. (0.5 mg/kg/d), percentage change from pre-dose cholesterol): -31.1%
13 | CC(C)c1cc(Oc2c(Cl)cc(CP(=O)(O)O)cc2Cl)ccc1O [Compound 19, [3,5-dichloro-4-(4′-hydroxy-3′-iso-propylphenoxy)]benzylphosphonic acid] | – | – | -19% | – | Ki [1]: 304 nM; Ki [2]: 52 nM
14 | CCOP(=O)(Cc1cc(Br)c(Oc2ccc(O)c(C(C)C)c2)c(Br)c1)OCC [Compound 19-1, diethyl[3,5-dibromo-4-(4′-hydroxy-3′-iso-propylphenoxy)]benzylphosphonate] | – | – | – | – | change in vivo at 0.5 mg/kg/day (plasma cholesterol; po): -6.6%; cholesterol lowering (plasma cholesterol; hypercholesterolemic rats, 0.5 mg/kg/d orally): failed to demonstrate cholesterol lowering
15 | CC(C)c1cc(Oc2c(Cl)cc(NCP(=O)(O)O)cc2Cl)ccc1O [Compound 22, [3,5-dichloro-4-(4′-hydroxy-3′-iso-propylphenoxy)phenylamino]methylphosphonic acid] | 186 nM | 31 nM | -44% | -16.5% | –
16 | CC(C)c1cc(Oc2c(Br)cc(NCP(=O)(O)O)cc2Br)ccc1O [Compound 22-1, [3,5-dibromo-4-(4′-hydroxy-3′-iso-propylphenoxy)phenylamino]methylphosphonic acid] | – | – | – | -19.9% | Ki [2]: 1.5 nM
17 | Cc1cc(CCP(=O)(O)O)cc(C)c1Cc1ccc(O)c(C(C)C)c1 [Compound 24-1, 2-[3,5-dimethyl-4-(4′-hydroxy-3′-iso-propylbenzyl)phenyl]ethylphosphonic acid] | – | – | -35.4% | – | Ki [2]: 31 nM
18 | Cc1cc(OCP(=O)(O)O)cc(C)c1Cc1ccc(F)c(C(C)C)c1 [Compound 27, [3,5-dimethyl-4-(4′-fluoro-3′-iso-propylbenzyl)phenoxy]methylphosphonic acid] | > 2000 nM | > 2000 nM | -20.8% | – | –
19 | Cc1cc(/C=C/P(=O)(O)O)cc(C)c1Oc1ccc(O)c(C(C)C)c1 [Compound 28, trans-2-[3,5-dimethyl-4-(4′-hydroxy-3′-iso-propylphenoxy)phenyl]vinylphosphonic acid] | 375 nM | 14 nM | -20.5% | – | –
20 | Cc1cc(CCCP(=O)(O)O)cc(C)c1Oc1ccc(O)c(C(C)C)c1 [Compound 29, 3-[3,5-dimethyl-4-(4′-hydroxy-3′-iso-propylphenoxy)phenyl]propylphosphonic acid] | 661 nM | 47 nM | -21.9% | – | –
21 | Cc1cc(OC[P@@]2(=O)OCC[C@@H](c3cccc(Br)c3)O2)cc(C)c1Cc1ccc(O)c(C(C)C)c1 [cis-13-2] | – | – | – | – | efficacy in lowering cholesterol (plasma cholesterol; another experiment, hypercholesterolemic rats): not efficacious

Now from value to molecule, other results behind:

Row | Ki ([1]; SPA data) | Ki ([2]; SPA data) | SMILES | change in vivo at 0.2 mg/kg/day (plasma cholesterol; [3]) | change in vivo at 0.2 mg/kg/day (plasma cholesterol; [4]) | further results
22 | 114 nM | 20 nM | CC(C)c1cc(Oc2c(Cl)cc(OCP(=O)(O)O)cc2Cl)ccc1O [Compound 8-2, [3,5-dichloro-4-(3′-iso-propyl-4′-hydroxyphenoxy)phenoxy]methylphosphonic acid] | -48% | – | –
23 | > 2000 nM | 24 nM | Cc1cc(/C=C/P(=O)(O)O)cc(C)c1Cc1ccc(O)c(C(C)C)c1 [Compound 24-2, trans-2-[3,5-dimethyl-4-(4′-hydroxy-3′-iso-propylbenzyl)phenyl]vinylphosphonic acid] | -20.5% | – | –
24 | 113 nM | 2.87 nM | CCC(C)c1cc(Cc2c(C)cc(CCP(=O)(O)O)cc2C)ccc1O (stereo not shown) [Compound 24-3, 2-[4-(3′-sec-butyl-4′-hydroxy-benzyl)-3,5-dimethyl-phenyl]-ethylphosphonic acid] | -48.6% | – | –
